In patent US20240287076A1, “COMPOUNDS FOR TARGETING DEGRADATION OF BRUTON'S TYROSINE KINASE” (BIOGEN MA INC., priority 2021, published 2024):

biological target: T1, BTK (Homo sapiens, UniProt Q06187); assay: BTK degradation assay using the HiBiT Method (Nano-Glo HiBiT Lytic Assay, GM01501.3 cells); type: cell-based; details: HiBiT Degradation on GM01501.3 BTK @ 6 hours
T1 construct: The GM01501.3 cell line endogenously expresses BTK with a HiBiT fusion tag via CRISPR knock-in at its C-terminal region; endogenous in cells; host or cells: GM01501.3 (GM01501 cells engineered by CRISPR knock-in of HiBiT at the BTK locus)
Summary of the method: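 CRISPR knock-in GM01501.3 cells expressing endogenous BTK with C-terminal HiBiT tag, treated 6 h at 37 °C with compounds, 11-point half-log titration from 10 μM top, duplicates. Remaining BTK quantified by Nano-Glo HiBiT lytic luminescence versus DMSO controls; DC50 reported.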

T1 sequence (Q06187 whole entry, the tested form may be a part): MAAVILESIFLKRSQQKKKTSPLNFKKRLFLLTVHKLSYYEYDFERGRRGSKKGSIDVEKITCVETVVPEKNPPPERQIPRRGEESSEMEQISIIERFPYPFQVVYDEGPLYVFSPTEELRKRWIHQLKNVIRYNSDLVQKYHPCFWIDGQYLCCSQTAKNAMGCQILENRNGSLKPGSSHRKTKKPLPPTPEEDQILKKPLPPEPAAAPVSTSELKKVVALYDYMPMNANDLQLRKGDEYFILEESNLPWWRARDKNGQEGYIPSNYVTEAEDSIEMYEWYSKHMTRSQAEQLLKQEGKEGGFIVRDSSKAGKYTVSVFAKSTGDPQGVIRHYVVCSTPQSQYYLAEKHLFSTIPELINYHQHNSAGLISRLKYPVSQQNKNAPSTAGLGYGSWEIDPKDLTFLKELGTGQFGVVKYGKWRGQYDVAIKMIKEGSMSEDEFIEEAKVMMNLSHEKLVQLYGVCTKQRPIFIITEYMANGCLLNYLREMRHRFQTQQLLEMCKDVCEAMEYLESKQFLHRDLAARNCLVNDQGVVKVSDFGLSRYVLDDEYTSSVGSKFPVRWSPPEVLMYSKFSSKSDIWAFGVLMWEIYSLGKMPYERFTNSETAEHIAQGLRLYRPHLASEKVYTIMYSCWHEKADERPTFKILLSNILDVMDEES

Compound	DC50 [nM]
Cc1cc(-c2ncnn3cc(CCN4CCC(c5ccc6c(C7CCC(=O)NC7=O)nn(C)c6c5)CC4)cc23)ccc1CNC(=O)c1ccn(C(C)(C)C)n1 (stereo not drawn) [Example 273, 1-(tert-butyl)-N-(4-(6-(2-(4-(3-(2,6-dioxopiperidin-3-yl)-1-methyl-1H-indazol-6-yl)piperidin-1-yl)ethyl)pyrrolo[2,1-f][1,2,4]triazin-4-yl)-2-methylbenzyl)-1H-pyrazole-3-carboxamide]	< 100
Cc1cc(-c2ncnn3cc(-c4ccc(CN5CCC(c6ccc(NC7CCC(=O)NC7=O)cc6)CC5)c(Cl)c4)cc23)ccc1CNC(=O)c1noc(C(C)(C)C)n1 (stereo not drawn) [Example 15, 5-tert-butyl-N-[[4-[6-[3-chloro-4-[[4-[4-[(2,6-dioxo-3-piperidyl)amino]phenyl]-1-piperidyl]methyl]phenyl]pyrrolo[2,1-f][1,2,4]triazin-4-yl]-2-methyl-phenyl]methyl]-1,2,4-oxadiazole-3-carboxamide]	< 100
Cc1cc(-c2ncnn3cc(-c4ccc(COCCCc5ccc(NC6CCC(=O)NC6=O)cc5)cc4)cc23)ccc1CNC(=O)c1noc(C(C)(C)C)n1 (stereo not drawn) [Example 147, 5-tert-butyl-N-[[4-[6-[4-[3-[4-[(2,6-dioxo-3-piperidyl)amino]phenyl]propoxymethyl]phenyl]pyrrolo[2,1-f][1,2,4]triazin-4-yl]-2-methyl-phenyl]methyl]-1,2,4-oxadiazole-3-carboxamide]	100 to 500
Cn1nc(N2CCC(=O)NC2=O)c2ccc(C3CCN(CCc4cc5c(-c6ccc(CNC(=O)c7noc(C(C)(C)C)n7)c(F)c6)ncnn5c4)CC3)cc21 [Example 124]	< 100
Cc1cc(-c2ncnn3cc(-c4ccc5c(c4)CN(CCc4ccc(NC6CCC(=O)NC6=O)cc4)CC5)cc23)ccc1CNC(=O)c1noc(C(C)(C)C)n1 (stereo not drawn) [Example 60, 5-tert-butyl-N-[[4-[6-[2-[2-[4-[(2,6-dioxo-3-piperidyl)amino]phenyl]ethyl]-3,4-dihydro-1H-isoquinolin-7-yl]pyrrolo[2,1-f] [1,2,4]triazin-4-yl]-2-imethyl-phenyl]methyl]-1,2,4-oxadiazole-3-carboxamide]	< 100
COc1cc(-c2ncnn3cc(-c4ccc(CN5CCC(c6ccc(NC7CCC(=O)NC7=O)cc6)CC5)cc4)cc23)ccc1CNC(=O)c1noc(C(C)(C)C)n1 (stereo not drawn) [Example 47, 5-tert-butyl-N-[[4-[6-[4-[[4-[4-[(2,6-dioxo-3-piperidyl)amino]phenyl]-1-piperidyl]methyl]phenyl]pyrrolo[2,1-f][1,2,4]triazin-4-yl]-2-methoxy-phenyl]methyl]-1,2,4-oxadiazole-3-carboxamide]	< 100
CC(C)(C)c1nc(C(=O)NCc2ccc(-c3ncnn4cc(CCCCN5CCC(c6ccc(NC7CCC(=O)NC7=O)cn6)CC5)cc34)cc2F)no1 (stereo not drawn) [Example 134, 5-tert-butyl-N-[[4-[6-[4-[4-[5-[(2,6-dioxo-3-piperidyl)amino]-2-pyridyl]-1-piperidyl]butyl]pyrrolo[2,1-f][1,2,4]triazin-4-yl]-2-fluoro-phenyl]methyl]-1,2,4-oxadiazole-3-carboxamide]	< 100
CC(C)(C)c1nc(C(=O)NCc2ccc(-c3ncnn4cc(-c5ccc(CN6CCC(c7ccc(C8CCC(=O)NC8=O)cc7)CC6)cc5)cc34)cc2F)no1 (stereo not drawn) [Example 42, 5-tert-butyl-N-[[4-[6-[4-[[4-[4-(2,6-dioxo-3-piperidyl)phenyl]-1-piperidyl]methyl]phenyl]pyrrolo[2,1-f][1,2,4]triazin-4-yl]-2-fluoro-phenyl]methyl]-1,2,4-oxadiazole-3-carboxamide]	< 100
Cc1cc(-c2ncnn3cc(OC[C@@H](F)CN4CCC(c5ccc6c(N7CCC(=O)NC7=O)nn(C)c6c5)CC4)cc23)ccc1CNC(=O)c1noc(C(C)(C)C)n1 [Example 295, (S)-5-(tert-butyl)-N-(4-(6-(3-(4-(3-(2,4-dioxotetrahydropyrimidin-1(2H)-yl)-1-methyl-1H-indazol-6-yl)piperidin-1-yl)-2-fluoropropoxy)pyrrolo[2,1-f][1,2,4]triazin-4-yl)-2-methylbenzyl)-1,2,4-oxadiazole-3-carboxamide]	< 100
Cn1nc(N2CCC(=O)NC2=O)c2ccc(C3CCN(Cc4ccc(-c5cc6nccc(-c7ccc(CNC(=O)N8CC(OC(C)(C)C)C8)c(F)c7)n6n5)cc4F)CC3)cc21 [Example 167, 3-tert-butoxy-N-[[4-[2-[4-[[4-[3-(2,4-dioxohexahydropyrimidin-1-yl)-1-methyl-indazol-6-yl]-1-piperidyl]methyl]-3-fluoro-phenyl]pyrazolo[1,5-a]pyrimidin-7-yl]-2-fluoro-phenyl]methyl]azetidine-1-carboxamide]	< 100
Cc1cc(-c2ncnn3cc(N4CCN(C(=O)CCCC5CN(C(=O)c6ccc(OC7CCC(=O)NC7=O)cc6)C5)CC4)cc23)ccc1CNC(=O)c1noc(C(C)(C)C)n1 (stereo not drawn) [Example 184, 5-(tert-butyl)-N-(4-(6-(4-(4-(1-(4-((2,6-dioxopiperidin-3-yl)oxy)benzoyl)azetidin-3-yl)butanoyl)piperazin-1-yl)pyrrolo[2,1-f][1,2,4]triazin-4-yl)-2-methylbenzyl)-1,2,4-oxadiazole-3-carboxamide]	< 100
Cc1cc(-c2ncnn3cc(CCN4CCN(c5ncc(NC6CCC(=O)NC6=O)cc5F)CC4)cc23)ccc1CNC(=O)c1noc(C(C)(C)C)n1 (stereo not drawn) [Example 263, 5-(tert-butyl)-N-(4-(6-(2-(4-(5-((2,6-dioxopiperidin-3-yl)amino)-3-fluoropyridin-2-yl)piperazin-1-yl)ethyl)pyrrolo[2,1-f][1,2,4]triazin-4-yl)-2-methylbenzyl)-1,2,4-oxadiazole-3-carboxamide]	< 100
CC(C)(C)c1nc(C(=O)NCc2ccc(-c3ncnn4cc(-c5ccc(CN6CCC(c7ccc(NC8CCC(=O)NC8=O)cn7)CC6)c(F)c5)cc34)cc2F)no1 (stereo not drawn) [Example 222, 5-(tert-butyl)-N-(4-(6-(4-((4-(5-((2,6-dioxopiperidin-3-yl)amino)pyridin-2-yl)piperidin-1-yl)methyl)-3-fluorophenyl)pyrrolo[2,1-f][1,2,4]triazin-4-yl)-2-fluorobenzyl)-1,2,4-oxadiazole-3-carboxamide]	< 100
CC(C)(C)c1nc(C(=O)NCc2ccc(-c3ncnn4cc(-c5ccc(CN6CCC(Cc7cccc(OC8CCC(=O)NC8=O)c7)CC6)cn5)cc34)cc2F)no1 (stereo not drawn) [Example 231, 5-(tert-butyl)-N-(4-(6-(5-((4-(3-((2,6-dioxopiperidin-3-yl)oxy)benzyl)piperidin-1-yl)methyl)pyridin-2-yl)pyrrolo[2,1-f][1,2,4]triazin-4-yl)-2-fluorobenzyl)-1,2,4-oxadiazole-3-carboxamide]	100 to 500
Cc1cc(-c2ncnn3cc(-c4ccc(CN5C6CCC5CC(c5ccc(NC7CCC(=O)NC7=O)cc5)C6)cc4)cc23)ccc1CNC(=O)c1noc(C(C)(C)C)n1 (stereo not drawn) [Example 6, 5-tert-butyl-N-[[4-[6-[4-[[3-[4-[(2,6-dioxo-3-piperidyl)amino]phenyl]-8-azabicyclo[3.2.1]octan-8-yl]methyl]phenyl]pyrrolo[2,1-f][1,2,4]triazin-4-yl]-2-methyl-phenyl]methyl]-1,2,4-oxadiazole-3-carboxamide]	< 100
CC(C)(C)c1nc(C(=O)NCc2ccc(-c3ncnn4cc(CCCCN5CCC(n6ccc(NC7CCC(=O)NC7=O)n6)CC5)cc34)cc2F)no1 (stereo not drawn) [Example 137, 5-tert-butyl-N-[[4-[6-[4-[4-[3-[(2,6-dioxo-3-piperidyl)amino]pyrazol-1-yl]-1-piperidyl]butyl]pyrrolo[2,1-f][1,2,4]triazin-4-yl]-2-fluoro-phenyl]methyl]-1,2,4-oxadiazole-3-carboxamide]	< 100
Cc1ccc(C(=O)NCc2ccc(-c3ncnn4cc(-c5ccc(CN6CCC(c7ccc(NC8CCC(=O)NC8=O)cc7)CC6)cc5)cc34)cc2C)c(F)c1 (stereo not drawn) [Example 95, N-[[4-[6-[4-[[4-[4-[(2,6-dioxo-3-piperidyl)amino]phenyl]-1-piperidyl]methyl]phenyl]pyrrolo[2,1-f][1,2,4]triazin-4-yl]-2-methyl-phenyl]methyl]-2-fluoro-4-methyl-benzamide]	< 100
CC(C)(C)c1nc(C(=O)NCc2ccc(-c3ncnn4cc(CCCCN5CCC(c6c(F)cc(C7CCC(=O)NC7=O)cc6F)CC5)cc34)cc2F)no1 (stereo not drawn) [Example 136, 5-tert-butyl-N-[[4-[6-[4-[4-[4-(2,6-dioxo-3-piperidyl)-2,6-difluoro-phenyl]-1-piperidyl]butyl]pyrrolo[2,1-f][1,2,4]triazin-4-yl]-2-fluoro-phenyl]methyl]-1,2,4-oxadiazole-3-carboxamide]	< 100
Cc1cc(-c2ncnn3cc(-c4ccn5cc(CN6CCC(c7ccc(C8CCC(=O)NC8=O)cc7)CC6)nc5c4)cc23)ccc1CNC(=O)c1noc(C(C)(C)C)n1 (stereo not drawn) [Example 211, 5-(tert-butyl)-N-(4-(6-(2-((4-(4-(2,6-dioxopiperidin-3-yl)phenyl)piperidin-1-yl)methyl)imidazo[1,2-a]pyridin-7-yl)pyrrolo[2,1-f][1,2,4]triazin-4-yl)-2-methylbenzyl)-1,2,4-oxadiazole-3-carboxamide]	< 100
Cc1cc(-c2ncnn3cc(COCCN4CCC(c5ccc(C6CCC(=O)NC6=O)cc5)CC4)cc23)ccc1CNC(=O)c1noc(C(C)(C)C)n1 (stereo not drawn) [Example 144, 5-tert-butyl-N-[[4-[6-[2-[4-[4-(2,6-dioxo-3-piperidyl)phenyl]-1-piperidyl]ethoxymethyl]pyrrolo[2,1-f][1,2,4]triazin-4-yl]-2-methyl-phenyl]methyl]-1,2,4-oxadiazole-3-carboxamide]	< 100
Cc1cc(-c2ncnn3cc(-c4ccc(C(=O)N[C@H](C)c5cccc(NC6CCC(=O)NC6=O)c5)cc4)cc23)ccc1CNC(=O)c1noc(C(C)(C)C)n1 (stereo partly drawn) [Example 199, 5-(tert-butyl)-N-(4-(6-(4-(((1R)-1-(3-((2,6-dioxopiperidin-3-yl)amino)phenyl)ethyl)carbamoyl)phenyl)pyrrolo[2,1-f] [1,2,4]triazin-4-yl)-2-methylbenzyl)-1,2,4-oxadiazole-3-carboxamide]	< 100
